For the assay, the system named is peptide-specific IgG in the serum. Briefly: ELISA of peptide-specific IgG in sera of HCV patients and healthy donors (Example 1). It is filed as binding, human. The conditions noted are these: ELISA, cut-off value 1.83; for Healthy donors (n = 10) Positive n: number of 10 healthy donors with serum IgG reactive to the peptide; for HCV patients (n = 12) Positive n: number of 12 HCV patients with serum IgG reactive to the peptide; for Healthy donors (n = 10) Positive %: share of 10 healthy donors with serum IgG reactive to the peptide; for HCV patients (n = 12) Positive %: share of 12 HCV patients with serum IgG reactive to the peptide. How it is done:
Synthetic peptides having an HLA-A2-binding motif or an HLA-A24-binding motif from a conserved region of HCV genotype 1b protein were used in this study (Table 1). A peptide derived from HIV having an HLA-A2-binding motif was used as a negative control. All of these peptides were purchased from a commercially supplier. The purity was analyzed by reverse-phase high-pressure liquid chromatography and found to be 90% or higher.
The level of the peptide-specific IgG in the serum was measured by ELISA. First, each peptide was dissolved in dimethyl sulfoxide (DMSO) and stored at −80° C. The peptide was diluted with 0.1 M sodium carbonate/sodium bicarbonate solution containing disuccinimidyl suberate (DSS) as a crosslinker. An ELISA plate was coated with 20 μg/well of peptide at 4° C. overnight. The wells were washed 3 times with 0.05% Tween 20/PBS (PBST), and the plate was blocked with Block Ace (registered trademark) and left overnight at 4° C. Plasma or serum samples were diluted in 1:100, 1:200 and 1:400 with 0.05% Tween 20/Block Ace, and 100 μl of each of the samples was added to each well. After the samples were incubated at 37° C. for 2 hours, the plate was washed 9 times with PBST, 100 μl of a 1:1000 diluted rabbit anti-human IgG (γ-chain specific) was added to each well, and incubated at 37° C. for 2 hours. The plate was washed 9 times with PBST, and 100 μl of 1:100 diluted mouse anti-rabbit IgG conjugated to a horseradish peroxidase-dextran polymer was added to each well, and then the plate was incubated at room temperature for 40 minutes. After the plate was washed, 100 μl of a tetramethylbenzidine substrate solution was added to each well. The reaction was stopped by the addition of 2.0 M phosphoric acid. The cutoff value was calculated as the mean±3 SD of the optical density values of the control obtained from the healthy donors.
The level of IgG that reacts with each of the 62 types of peptides was measured in the sera from 12 patients infected with HCV and 10 healthy donors (HDs) (Table 1).

“23 (GYGAGVAGAL; Hepatitis C Virus) [Peptide 23]”: the “Healthy donors (n = 10) Positive n” value was determined as 0, the “HCV patients (n = 12) Positive n” value turned out to be 2, the “Healthy donors (n = 10) Positive %” value was determined as 0% and the “HCV patients (n = 12) Positive %” value is on record as 17%.

In the case of “24 (AYAAQGYKVL; Hepatitis C Virus) [Peptide 24]”, the “Healthy donors (n = 10) Positive n” value was 0, the “HCV patients (n = 12) Positive n” value worked out at 2, the “Healthy donors (n = 10) Positive %” value is 0% and the “HCV patients (n = 12) Positive %” value came out at 17%.

In the case of “25 (VYHGAGSKTL; Hepatitis C Virus) [Peptide 25]”, the “Healthy donors (n = 10) Positive n” value was determined as 0, the “HCV patients (n = 12) Positive n” value turned out to be 6, the “Healthy donors (n = 10) Positive %” value is 0% and the “HCV patients (n = 12) Positive %” value was determined as 50%.

Consider “26 (AYALYGVWPL; Hepatitis C Virus) [Peptide 26]”, for which the “Healthy donors (n = 10) Positive n” value is on record as 0, the “HCV patients (n = 12) Positive n” value stood at 2, the “Healthy donors (n = 10) Positive %” value came out at 0% and the “HCV patients (n = 12) Positive %” value came to 17%.

Take “27 (HYPCTVNFTI; Hepatitis C Virus) [Peptide 27]”: the “Healthy donors (n = 10) Positive n” value is 0, the “HCV patients (n = 12) Positive n” value stood at 4, the “Healthy donors (n = 10) Positive %” value came to 0% and the “HCV patients (n = 12) Positive %” value is on record as 33%.

In the case of “28 (YYRGLDVSVI; Hepatitis C Virus) [Peptide 28]”, the “Healthy donors (n = 10) Positive n” value was 0, the “HCV patients (n = 12) Positive n” value is 2, the “Healthy donors (n = 10) Positive %” value was determined as 0% and the “HCV patients (n = 12) Positive %” value stood at 17%.

Turning to “29 (TFLVGLNQYL; Hepatitis C Virus) [Peptide 29]”, the “Healthy donors (n = 10) Positive n” value came to 0, the “HCV patients (n = 12) Positive n” value worked out at 2, the “Healthy donors (n = 10) Positive %” value was determined as 0% and the “HCV patients (n = 12) Positive %” value was 17%.

Take “30 (VFVGLILLTL; Hepatitis C Virus) [Peptide 30]”: the “Healthy donors (n = 10) Positive n” value was 0, the “HCV patients (n = 12) Positive n” value is 4, the “Healthy donors (n = 10) Positive %” value is 0% and the “HCV patients (n = 12) Positive %” value stood at 33%.

“32 (IFLLALLSCL; Hepatitis C Virus) [Peptide 32]”: the “Healthy donors (n = 10) Positive n” value is recorded as 0, the “HCV patients (n = 12) Positive n” value is reported as 7, the “Healthy donors (n = 10) Positive %” value is listed as 0% and the “HCV patients (n = 12) Positive %” value amounted to 58%.

As to “33 (NFISGIQYL; Hepatitis C Virus) [Peptide 33]”, the “Healthy donors (n = 10) Positive n” value came to 0, the “HCV patients (n = 12) Positive n” value is recorded as 0, the “Healthy donors (n = 10) Positive %” value was 0% and the “HCV patients (n = 12) Positive %” value was determined as 0%.

On to “35 (AFTASITSPL; Hepatitis C Virus) [Peptide 35]”, for which the “Healthy donors (n = 10) Positive n” value is on record as 0, the “HCV patients (n = 12) Positive n” value worked out at 0, the “Healthy donors (n = 10) Positive %” value came out at 0% and the “HCV patients (n = 12) Positive %” value is given as 0%.

Consider “36 (GYGAGVAGAL; Hepatitis C Virus) [Peptide 36]”, for which the “Healthy donors (n = 10) Positive n” value came out at 0, the “HCV patients (n = 12) Positive n” value is 1, the “Healthy donors (n = 10) Positive %” value worked out at 0% and the “HCV patients (n = 12) Positive %” value turned out to be 8%.

“37 (DFKTWLQSKL; Hepatitis C Virus) [Peptide 37]”: the “Healthy donors (n = 10) Positive n” value came out at 0, the “HCV patients (n = 12) Positive n” value worked out at 1, the “Healthy donors (n = 10) Positive %” value turned out to be 0% and the “HCV patients (n = 12) Positive %” value worked out at 8%.

As to “38 (SFSIFLLALL; Hepatitis C Virus) [Peptide 38]”, the “Healthy donors (n = 10) Positive n” value is given as 0, the “HCV patients (n = 12) Positive n” value stood at 7, the “Healthy donors (n = 10) Positive %” value was 0% and the “HCV patients (n = 12) Positive %” value is 58%.

Turning to “40 (YLLPRRGPRL; Hepatitis C Virus) [Peptide 40]”, the “Healthy donors (n = 10) Positive n” value amounted to 0, the “HCV patients (n = 12) Positive n” value is 12, the “Healthy donors (n = 10) Positive %” value was found to be 0% and the “HCV patients (n = 12) Positive %” value worked out at 100%.

For the substance “41 (SYTWTGALI; Hepatitis C Virus) [Peptide 41]”, the “Healthy donors (n = 10) Positive n” value was determined as 0, the “HCV patients (n = 12) Positive n” value is 0, the “Healthy donors (n = 10) Positive %” value was 0% and the “HCV patients (n = 12) Positive %” value stood at 0%.

In the case of “42 (HYRDVLKEM; Hepatitis C Virus) [Peptide 42]”, the “Healthy donors (n = 10) Positive n” value was 0, the “HCV patients (n = 12) Positive n” value worked out at 1, the “Healthy donors (n = 10) Positive %” value is recorded as 0% and the “HCV patients (n = 12) Positive %” value was found to be 8%.

As to “43 (ILHTPGCV; Hepatitis C Virus) [Peptide 43]”, the “Healthy donors (n = 10) Positive n” value was 0, the “HCV patients (n = 12) Positive n” value was found to be 3, the “Healthy donors (n = 10) Positive %” value was 0% and the “HCV patients (n = 12) Positive %” value amounted to 25%.

As for “44 (WFMWCLLLL; Hepatitis C Virus) [Peptide 44]”, the “Healthy donors (n = 10) Positive n” value came to 0, the “HCV patients (n = 12) Positive n” value was found to be 0, the “Healthy donors (n = 10) Positive %” value turned out to be 0% and the “HCV patients (n = 12) Positive %” value is recorded as 0%.

On to “45 (SLLAPGAKQNV; Hepatitis C Virus) [Peptide 45]”, for which the “Healthy donors (n = 10) Positive n” value is reported as 3, the “HCV patients (n = 12) Positive n” value is given as 0, the “Healthy donors (n = 10) Positive %” value was determined as 30% and the “HCV patients (n = 12) Positive %” value was 0%.

Take “47 (LLCPAGHAV; Hepatitis C Virus) [Peptide 47]”: the “Healthy donors (n = 10) Positive n” value is on record as 2, the “HCV patients (n = 12) Positive n” value is 1, the “Healthy donors (n = 10) Positive %” value was found to be 20% and the “HCV patients (n = 12) Positive %” value was found to be 8%.

Take “52 (ILAGYGAGV; Hepatitis C Virus) [Peptide 52]”: the “Healthy donors (n = 10) Positive n” value is 1, the “HCV patients (n = 12) Positive n” value was 0, the “Healthy donors (n = 10) Positive %” value was found to be 10% and the “HCV patients (n = 12) Positive %” value is recorded as 0%.

As to “55 (GLQDCTMLV; Hepatitis C Virus) [Peptide 55]”, the “Healthy donors (n = 10) Positive n” value worked out at 1, the “HCV patients (n = 12) Positive n” value turned out to be 2, the “Healthy donors (n = 10) Positive %” value is on record as 10% and the “HCV patients (n = 12) Positive %” value is reported as 17%.

For the substance “56 (ALAHGVRAL; Hepatitis C Virus) [Peptide 56]”, the “Healthy donors (n = 10) Positive n” value turned out to be 1, the “HCV patients (n = 12) Positive n” value came to 0, the “Healthy donors (n = 10) Positive %” value stood at 10% and the “HCV patients (n = 12) Positive %” value is 0%.

“57 (NLPGCSFSI; Hepatitis C Virus) [Peptide 57]”: the “Healthy donors (n = 10) Positive n” value amounted to 1, the “HCV patients (n = 12) Positive n” value was 0, the “Healthy donors (n = 10) Positive %” value amounted to 10% and the “HCV patients (n = 12) Positive %” value was 0%.

With “61 (HYRDVLKEM; Hepatitis C Virus) [Peptide 61]”, the “Healthy donors (n = 10) Positive n” value is on record as 1, the “HCV patients (n = 12) Positive n” value is on record as 3, the “Healthy donors (n = 10) Positive %” value came to 10% and the “HCV patients (n = 12) Positive %” value is reported as 25%.

In the case of “62 (WFMWCLLLL; Hepatitis C Virus) [Peptide 62]”, the “Healthy donors (n = 10) Positive n” value is 0, the “HCV patients (n = 12) Positive n” value worked out at 7, the “Healthy donors (n = 10) Positive %” value was 0% and the “HCV patients (n = 12) Positive %” value was 58%.

In the case of “66 (QFKQKALGLL; Hepatitis C Virus) [Peptide 66]”, the “Healthy donors (n = 10) Positive n” value stood at 0, the “HCV patients (n = 12) Positive n” value is reported as 3, the “Healthy donors (n = 10) Positive %” value is reported as 0% and the “HCV patients (n = 12) Positive %” value stood at 25%.

These data come from patent publication US20080063643A1, “Peptide Derived From Hepatitis C Virus” (priority 2003, published 2008).
